Settings: human, in vivo
Description: To evaluate the method for rapid, non-invasive, quantitative assessment of liver function, performed before liver graft procurement, a LiMON liver function monitor, manufactured by Pulsion Medical Systems, Munich, Germany, was used for the assessment of brain-dead donor livers by measuring Indocyanine Green Plasma Disappearance Rates (ICG-PDRs). […] The LiMON monitor 102 measures Indocyanine Green (ICG) 104 clearance from the blood, after the ICG is administered intravenously to the donor, by non-invasive pulse-densitometry using, for example, a finger probe 106.
Injected ICG 202 is detected by a sensor 204 on the finger 206 from fractional pulsatile changes 208, 210 in optical absorption using LED lights 212. The optical peak absorption of 805 nm as shown in FIG. 2B and 905 nm as shown in FIG. 2C allows continuous measurements of ICG-PDR. The clearance of the injected dye from the blood (mg/l) can be calculated as:
The ICG-PDR is calculated as the ICG clearance (CICG) over time, as shown in the graph in FIG. 3.
Consecutive adult brain-dead donors in the local donation service area, whose livers were offered to the study center, were assessed for liver function using the methods of the current disclosure, after permission was acquired. Immediately prior to organ procurement, indocyanine green elimination tests were conducted using the non-invasive liver function monitoring system shown in FIG. 1 and FIG. 2A. Each patient received an ICG finger clip connected to a liver function monitor. A dose of 0.25 mg/kg ICG (ICG—PULSION, Pulsion Medical Systems) was given through a central vein as a bolus and immediately flushed with 10 mL of normal saline. All of the ICG-PDR measurements were acquired using the LiMON liver function monitor manufactured by Pulsion Medical Systems, Munich, Germany.

CC1(C)C(/C=C/C=C/C=C/C=C2\N(CCCCS(=O)(=O)O)c3ccc4ccccc4c3C2(C)C)=[N+](CCCCS(=O)(=O)[O-])c2ccc3ccccc3c21 [ICG, Indocyanine Green]
IGG-PDR, Mean (SD), Accepted: 24.1 (6.7) %/min | IGG-PDR, Mean (SD), Rejected: 17.9 (4.7) %/min | PDR, sample PULSION-LiMON ICG trace of a non-acceptable liver: 12.9 % clearance per minute | PDR, sample PULSION-LiMON ICG trace of an accepted liver: 21.5 % clearance per minute

Reference: patent US20170000405A1, “RAPID, REPRODUCIBLE, NON-INVASIVE PREDICTOR OF CADAVERIC DONOR LIVER GRAFT UTILIZATION” (THE REGENTS OF THE UNIVERSITY OF CALIFORNIA, priority 2014, published 2017)
